Measurements taken from patent US12661313B2, “Cosmetic composition” (MARY KAY INC., priority 2019, dated 2026).

Assays:
MMP-3 = target: T1, MMP-3 (Homo sapiens, UniProt P08254); assay: Matrix Metalloproteinase 3 Enzyme Activity (MMP-3) Assay (BioMol AK-400); type: biochemical; conditions: thiopeptide chromogenic substrate, absorbance 412 nm
T1 construct: purchased BioMol International AK-400
Text: (§1) MMPs are extracellular proteases that play a role in many normal and disease states by virtue of their broad substrate specificity. MMP-3 substrates include collagens, fibronectins, and laminin; while MMP-9 substrates include collagen VII, fibronectins and laminin. Colorimetric Drug Discovery kits from BioMol International for MMP-3 (AK-400) and MMP-9 (AK-410) were used to measure protease activity of MMPs using a thiopeptide as a chromogenic substrate (Ac-PLG-[2-mercapto-4-methyl-pentanoyl]-LG-OC2H5)5,6. The MMP cleavage site peptide bond is replaced by a thioester bond in the thiopeptide. Hydrolysis of this bond by an MMP produces a sulfhydryl group, which reacts with DTNB [5,5′-dithiobis(2-nitrobenzoic acid), Ellman's reagent] to form 2-nitro-5-thiobenzoic acid, which can be detected by its absorbance at 412 nm (ε=13,600 M−1 cm−1 at pH 6.0 and above 7). It was determined that Rosmarinus officinalis leaf extract inhibited MMP-3 by 40%, Morus alba fruit extract inhibited by 29%, and tetrahexyldecyl ascorbate inhibited by 38%. It was determined that Rosmarinus officinalis leaf extract inhibited MMP-9 by 61%, Morus alba fruit extract inhibited by 84%, tetrahexyldecyl ascorbate inhibited by 11%, and Acmella oleracea extract inhibited by 80%.

procollagen-1 = assay: Collagen Stimulation Assay (PICP ELISA, Takara #MK101); type: cell-based; conditions: normal human adult epidermal fibroblasts treated 3 days, culture medium
Text: Collagens (types I, II, III, IV and V) are synthesized as precursor molecules called procollagens. These precursor molecules contain additional peptide sequences, usually called “propeptides”, at both the amino-terminal and the carboxy-terminal ends. During cellular expression and secretion, procollagens are assembled in the trimeric form and then cleaved at specific N- and C-terminal sites by specific endopeptidases, generating three fragments: procollagen-1 N-terminal propeptide (PINP), Type I collagen, and procollagen-1 carboxy-terminal propeptide (PICP).
The function of the propeptides is to facilitate the winding of procollagen molecules into a triple-helical conformation within the endoplasmic reticulum. […]
Quantitative detection of PICP in fibroblast cell extracts and culture supernatants was performed with an enzyme immunoassay kit (e.g., Takara #MK101) to assess the effects of the ingredients on the synthesis of PICP in skin. […] The assay employed the quantitative sandwich enzyme immunoassay technique whereby a monoclonal antibody specific for procollagen peptide was pre-coated onto a microplate. […] Color development was stopped and the intensity of the color at 450 nm was measured using a microplate reader. […]

IL-6 = assay: Inhibition of IL-6
MMP-9 = target: T2, MMP-9 (Homo sapiens, UniProt P14780); assay: Matrix Metalloproteinase 9 Enzyme Activity (MMP-9) Assay (BioMol AK-410); type: biochemical; conditions: thiopeptide chromogenic substrate, absorbance 412 nm
T2 construct: purchased BioMol International AK-410
T2 sequence (P14780 107-444 limits assumed): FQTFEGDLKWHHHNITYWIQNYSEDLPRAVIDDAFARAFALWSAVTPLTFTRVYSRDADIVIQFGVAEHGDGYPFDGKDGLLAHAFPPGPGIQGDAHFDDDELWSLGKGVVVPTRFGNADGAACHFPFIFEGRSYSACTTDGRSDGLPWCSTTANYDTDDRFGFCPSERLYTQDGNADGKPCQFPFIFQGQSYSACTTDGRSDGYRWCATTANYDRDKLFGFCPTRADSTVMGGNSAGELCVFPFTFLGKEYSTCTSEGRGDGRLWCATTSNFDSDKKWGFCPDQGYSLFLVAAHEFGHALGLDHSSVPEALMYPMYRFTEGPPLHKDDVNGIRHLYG
Text: as §1

TNF-α = assay: Tumor Necrosis Factor Alpha (TNF-α) Assay (ELISA, PMA-treated keratinocytes); type: cell-based; conditions: normal human adult keratinocytes, PMA 10 ng/ml, 6 hours
Text: Tumor Necrosis Factor Alpha (TNF-α) Assay: Rosmarinus officinalis leaf extract and saccharide isomerate inhibit TNF-α activity. The prototype ligand of the TNF superfamily, TNF-α, is a pleiotropic cytokine that plays a central role in inflammation. Increase in its expression is associated with an up regulation in pro-inflammatory activity. The bioassay used analyzed the effect of Rosmarinus officinalis leaf extract and saccharide isomerate on the production of TNF-α by human epidermal keratinocytes. The endpoint of this assay was a spectrophotometric measurement that reflects the presence of TNF-α and cellular viability. The assay employed the quantitative sandwich enzyme immunoassay technique whereby a monoclonal antibody specific for TNF-α had been pre-coated onto a microplate.
Standards and samples were pipetted into wells of the microplate and any TNF-α present was bound by the immobilized antibody. After washing away any unbound substances, an enzyme-linked polyclonal antibody specific for TNF-α was added to the wells. Following a wash to remove any unbound antibody-enzyme reagent, a substrate solution was added to the wells and color developed in proportion to the amount of TNF-α bound in the initial step using a microplate reader for detection at 450 nm. The color development can be stopped and the intensity of the color was measured. […]

T1 sequence (P08254 100-272 limits assumed): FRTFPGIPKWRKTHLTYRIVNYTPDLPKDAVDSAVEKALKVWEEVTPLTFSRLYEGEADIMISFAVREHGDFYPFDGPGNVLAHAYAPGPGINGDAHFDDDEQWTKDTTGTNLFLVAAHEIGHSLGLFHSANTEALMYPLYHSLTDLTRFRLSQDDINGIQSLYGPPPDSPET

| Compound | Inhibit MMP-3, Change (%) (MMP-3) | Increase Collagen Expression (procollagen-1), Change (%) (procollagen-1) | Inhibit IL-6, Change (%) (IL-6) | Inhibit MMP-9, Change (%) (MMP-9) | Inhibit TNF-α, Change (%) (TNF-α) |
| --- | --- | --- | --- | --- | --- |
| CCCCCCCCC(CCCCCC)C(=O)OC[C@H](OC(=O)C(CCCCCC)CCCCCCCC)[C@H]1OC(=O)C(OC(=O)C(CCCCCC)CCCCCCCC)=C1OC(=O)C(CCCCCC)CCCCCCCC (some centres unmarked) [Tetrahexyldecyl ascorbate] | 38 | 50 | 38 | 11 | – |
| Saccharide isomerate | – | – | – | – | 88 |
